Converted amounts (≈) assume the structure as drawn.
Columns and labels:
[1] = target: T1, UDP-3-O-acyl-N-acetylglucosamine deacetylase (Escherichia coli K-12) (UniProt P0A725); assay: Inhibition of LpxC in Escherichia coli AB1157 assessed as reduction in microbial growth incubated for 22 hrs by MTT assay
T1 sequence (whole entry): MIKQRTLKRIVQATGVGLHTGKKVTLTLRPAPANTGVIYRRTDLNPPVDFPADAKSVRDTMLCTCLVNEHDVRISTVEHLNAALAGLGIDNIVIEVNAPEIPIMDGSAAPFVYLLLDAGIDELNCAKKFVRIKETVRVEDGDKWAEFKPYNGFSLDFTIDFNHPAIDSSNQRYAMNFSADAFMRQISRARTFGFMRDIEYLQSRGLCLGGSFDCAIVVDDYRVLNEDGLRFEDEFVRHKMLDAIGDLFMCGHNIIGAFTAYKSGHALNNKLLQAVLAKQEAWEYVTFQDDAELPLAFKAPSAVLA

[2] = target: T1, UDP-3-O-acyl-N-acetylglucosamine deacetylase (Escherichia coli K-12); assay: Inhibition of LpxC in Escherichia coli DH5[alpha] assessed as reduction in microbial growth incubated for 22 hrs by MTT assay
[3] = target: T2, UDP-3-O-acyl-N-acetylglucosamine deacetylase (Pseudomonas aeruginosa (strain ATCC 15692 / PAO1 / 1C / PRS 101 / LMG12228)) (UniProt P47205)
T2 sequence (whole entry): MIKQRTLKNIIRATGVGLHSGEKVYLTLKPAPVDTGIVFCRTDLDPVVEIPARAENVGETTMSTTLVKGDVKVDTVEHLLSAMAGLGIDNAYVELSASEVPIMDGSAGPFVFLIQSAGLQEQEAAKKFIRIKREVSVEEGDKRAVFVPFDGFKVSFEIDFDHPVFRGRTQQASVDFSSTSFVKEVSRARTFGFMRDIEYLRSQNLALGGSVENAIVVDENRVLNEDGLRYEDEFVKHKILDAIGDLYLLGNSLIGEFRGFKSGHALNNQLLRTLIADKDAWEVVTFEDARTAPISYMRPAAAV

[4] = test system: Pseudomonas aeruginosa PA14; assay: Inhibition of LpxC in Pseudomonas aeruginosa PA14 assessed as reduction in microbial growth incubated for 22 hrs by MTT assay
[5] = Elimination half life in mouse liver microsomes at 0.1 umol/L in presence of NADPH by LC/MS/MS method; format: ADME, microsome; details: read-out: beta t1/2
[6] = Stability in human liver microsomes assessed as drug netabolism at 0.1 umol/L after 60 mins in presence of NADPH by LC/MS/MS method; format: ADME, microsome; details: 1 h, 0.1 µM
[7] = Intrinsic clearance in mouse liver microsomes assessed as per gram protein at 0.1 umol/L in presence of NADPH by LC/MS/MS method; format: ADME, microsome; set-up: unit not given here; details: 0.1 µM
[8] = Intrinsic clearance in human liver microsomes assessed as per gram protein at 0.1 umol/L in presence of NADPH by LC/MS/MS method; format: ADME, microsome; details: 0.1 µM
[9] = Elimination half life in human liver microsomes at 0.1 umol/L in presence of NADPH by LC/MS/MS method; format: ADME, microsome; details: read-out: beta t1/2

Cc1cc(C#CC#CC2CC2)ccc1C(=O)N[C@H](C(=O)NO)[C@@H](C)O
MIC [1]: 0.156 µg/mL
MIC [2]: 0.156 µg/mL
MIC [3]: 5 µg/mL (≈ 14.7 µM)
MIC [4]: 5 µg/mL

CC(C)(N)[C@H](NC(=O)c1ccc(C#CC#CC2CC2)c(F)c1)C(=O)NO
MIC [1]: 0.019 µg/mL
half-life at 0.1 µM [5]: 2.25 h
MIC [2]: 0.019 µg/mL
Stability [6]: Stable
MIC [3]: 0.31 µg/mL (≈ 0.867 µM)
MIC [4]: 0.31 µg/mL
intrinsic clearance in liver microsomes [7]: 16
intrinsic clearance [8]: 0 mL/min/g

C[C@@H](O)[C@H](NC(=O)c1ccc(C#CC#CC2CC2)cc1F)C(=O)NO
MIC [1]: 0.31 µg/mL
half-life at 0.1 µM [5]: 1.42 h
MIC [2]: 0.31 µg/mL
MIC [3]: 2.5 µg/mL (≈ 7.26 µM)
MIC [4]: 1.25 µg/mL
intrinsic clearance in liver microsomes [7]: 25
half-life at 0.1 µM [9]: 3.33 h
intrinsic clearance [8]: 11 mL/min/g

CC(CCc1ccc(-c2ccccc2)cc1)(C(=O)Nc1ccccc1N)S(C)(=O)=O (stereo not given)
MIC [1]: > 256 µg/mL
MIC [2]: > 256 µg/mL
MIC [3]: > 256 µg/mL
MIC [4]: > 256 µg/mL

C[C@@H](O)[C@H](NC(=O)[C@@H]1CN(c2ccc(-c3ccccc3)cc2)C(=O)O1)C(=O)NO
MIC [1]: > 256 µg/mL
MIC [2]: > 256 µg/mL
MIC [3]: > 256 µg/mL
MIC [4]: > 256 µg/mL

C[C@@H](O)[C@H](NC(=O)c1ccc(C#CC#CC2CC2)cn1)C(=O)NO
MIC [1]: 1.25 µg/mL
MIC [2]: 0.625 µg/mL
MIC [3]: 20 µg/mL (≈ 61.1 µM)
MIC [4]: 10 µg/mL

C[C@@H](O)[C@H](NC(=O)c1ccc(C#CC#CC2CC2)cc1OC(F)F)C(=O)NO
MIC [1]: 0.156 µg/mL
MIC [2]: 0.31 µg/mL
MIC [3]: 10 µg/mL (≈ 25.5 µM)
MIC [4]: 10 µg/mL

C[C@@H](O)[C@H](NC(=O)[C@H]1CN(c2ccc(C#Cc3ccccc3)cc2)C(=O)O1)C(=O)NO
MIC [1]: > 256 µg/mL
MIC [2]: > 256 µg/mL
MIC [3]: > 256 µg/mL
MIC [4]: > 256 µg/mL

CC(C)(N)[C@H](NC(=O)c1ccc(C#CC#CC2CC2)cc1)C(=O)NO
MIC [1]: 0.039 µg/mL
half-life at 0.1 µM [5]: 3.43 h
MIC [2]: 0.012 µg/mL
MIC [3]: 0.156 µg/mL (≈ 0.46 µM)
MIC [4]: 0.078 µg/mL
intrinsic clearance in liver microsomes [7]: 10
half-life at 0.1 µM [9]: 56.9 h
intrinsic clearance [8]: 1 mL/min/g

C[C@@H](O)[C@H](NC(=O)c1ccc(C#CC#CC2CC2)cc1)C(=O)NO
MIC [1]: 0.024 µg/mL
half-life at 0.1 µM [5]: 3.17 h
MIC [2]: 0.024 µg/mL
MIC [3]: 0.19 µg/mL (≈ 0.582 µM)
MIC [4]: 0.19 µg/mL
intrinsic clearance in liver microsomes [7]: 11
half-life at 0.1 µM [9]: 10.6 h
intrinsic clearance [8]: 3 mL/min/g

CC(C)(N)[C@H](NC(=O)c1ccc(C#CC#CC2CC2)cc1F)C(=O)NO
MIC [1]: 0.078 µg/mL
half-life at 0.1 µM [5]: 4 h
MIC [2]: 0.04 µg/mL
Stability [6]: Stable
MIC [3]: 0.625 µg/mL (≈ 1.75 µM)
MIC [4]: 0.31 µg/mL
intrinsic clearance in liver microsomes [7]: 9
intrinsic clearance [8]: 0 mL/min/g

C[C@@H](O)[C@H](NC(=O)c1ccc(C#Cc2ccc(CN3CCOCC3)cc2)cc1)C(=O)NO
MIC [1]: 0.156 µg/mL
MIC [2]: 0.156 µg/mL

C[C@@H](O)[C@H](NC(=O)c1ccc(C#CC#CC2CC2)cc1C#N)C(=O)NO
MIC [1]: 80 µg/mL
MIC [2]: 40 µg/mL
MIC [3]: 40 µg/mL (≈ 114 µM)
MIC [4]: 40 µg/mL

CC(C)(N)[C@H](NC(=O)c1ccc(C#CC#CC2CC2)cc1O)C(=O)NO
MIC [1]: 0.078 µg/mL
half-life at 0.1 µM [5]: 1.58 h
MIC [2]: 0.078 µg/mL
Stability [6]: Stable
MIC [3]: 0.625 µg/mL (≈ 1.76 µM)
MIC [4]: 0.625 µg/mL
intrinsic clearance in liver microsomes [7]: 22
intrinsic clearance [8]: 0 mL/min/g

C[C@@H](O)[C@H](NS(=O)(=O)c1ccc(C#CC#CC2CC2)cc1)C(=O)NO
MIC [1]: 40 µg/mL
MIC [2]: 20 µg/mL
MIC [3]: 100 µg/mL (≈ 276 µM)
MIC [4]: 50 µg/mL

C[C@@H](O)[C@H](NC(=O)[C@H]1CN(c2ccc(-c3ccccc3)cc2)C(=O)O1)C(=O)NO
MIC [1]: > 256 µg/mL
MIC [2]: > 256 µg/mL
MIC [3]: > 256 µg/mL
MIC [4]: > 256 µg/mL

C[C@@H](O)[C@H](NC(=O)[C@@H]1CN(c2ccc(C#Cc3ccccc3)cc2)C(=O)O1)C(=O)NO
MIC [1]: > 256 µg/mL
MIC [2]: > 256 µg/mL
MIC [3]: > 256 µg/mL
MIC [4]: > 256 µg/mL

C[C@@H](O)[C@H](NC(=O)c1ccc(C#CC#CC2CC2)cc1[N+](=O)[O-])C(=O)NO
MIC [1]: 0.6 µg/mL
MIC [2]: 0.4 µg/mL
MIC [3]: 5 µg/mL (≈ 13.5 µM)
MIC [4]: 5 µg/mL

C[C@@H](O)[C@H](NC(=O)c1ccc(C#CC#CC2CC2)cc1O)C(=O)NO
MIC [1]: 0.078 µg/mL
half-life at 0.1 µM [5]: 3.88 h
MIC [2]: 0.156 µg/mL
MIC [3]: 0.625 µg/mL (≈ 1.83 µM)
MIC [4]: 0.625 µg/mL
intrinsic clearance in liver microsomes [7]: 9
half-life at 0.1 µM [9]: 4.55 h
intrinsic clearance [8]: 8 mL/min/g

C[C@@H](O)[C@H](NC(=O)c1ccc(C#CC#CC2CC2)c(F)c1)C(=O)NO
MIC [1]: 0.4 µg/mL
half-life at 0.1 µM [5]: 2.38 h
MIC [2]: 0.31 µg/mL
MIC [3]: 0.63 µg/mL (≈ 1.83 µM)
MIC [4]: 0.63 µg/mL
intrinsic clearance in liver microsomes [7]: 15
half-life at 0.1 µM [9]: 44.4 h
intrinsic clearance [8]: 1 mL/min/g

COc1cc(C#CC#CC2CC2)ccc1C(=O)N[C@H](C(=O)NO)[C@@H](C)O
MIC [1]: 1.25 µg/mL
MIC [2]: 2.5 µg/mL
MIC [3]: 10 µg/mL (≈ 28.1 µM)
MIC [4]: 10 µg/mL

C[C@@H](O)[C@H](NC(=O)c1ccc(C#CC#CC2CC2)cc1N)C(=O)NO
MIC [1]: 0.04 µg/mL
MIC [2]: 0.04 µg/mL
MIC [3]: 0.625 µg/mL (≈ 1.83 µM)
MIC [4]: 0.625 µg/mL

CC(CCc1ccc(-c2ccccc2)cc1)(C(=O)NO)S(C)(=O)=O (racemic)
MIC [1]: 1 µg/mL
MIC [2]: 0.4 µg/mL
MIC [3]: 0.31 µg/mL (≈ 0.892 µM)
MIC [4]: 0.31 µg/mL

C[C@@H](O)[C@H](NC(=O)c1ccc(C#CC#CC2CC2)cc1Cl)C(=O)NO
MIC [1]: 0.192 µg/mL
MIC [2]: 0.048 µg/mL
MIC [3]: 6.25 µg/mL (≈ 17.3 µM)
MIC [4]: 6.25 µg/mL

C[C@@H](O)[C@@H](CN(O)C=O)NC(=O)c1ccc(C#CC#CC2CC2)cc1
MIC [1]: > 256 µg/mL
MIC [2]: > 256 µg/mL
MIC [3]: > 256 µg/mL
MIC [4]: > 256 µg/mL
